Experimental data: patent US12649748B2, “Wee1 inhibitor and use thereof” (JIANGSU TASLY DIYI PHARMACEUTICAL CO., LTD., priority 2021, dated 2026)

Tests used:
Assay type in all cases: in vitro ADME
[1] = Metabolic stability of liver microsomes in vitro (human); conditions: read-out: Human T1/2/min
Procedure: Microsomes were taken out from the −80° C. refrigerator, rapidly melted in a 37° C. water bath and placed on ice until ready to use. The test article was diluted with DMSO to prepare a 10 mM stock solution, and then diluted with acetonitrile to a 0.5 mM secondary stock solution. The microsomes were diluted to 0.75 mg/ml using Buffer C; the secondary stock solution was then added to a final concentration of 1.5 μM of compound as working solution, based on n=2, 5 time points, 350 μL of each compound was prepared and placed on ice prior to use. NADPH was diluted with Buffer C to a working solution of 6 mM for the starter solution. An acetonitrile solution containing an internal standard was prepared as the precipitant, and Verapamil-HCl was chosen as the internal standard at a concentration of 4 ng/ml.
A round-bottom well plate was taken, noted as the reaction plate, and the prepared working solution for each compound was dispensed into the well plate according to the number of replicates and time points (0 h samples are also added to the reaction plate), 30 μL/well; the plate was incubated at 37° C. for 10 min. A separate plate with pointed bottom wells, noted as a precipitation plate, was added with 135 μL precipitant per well; 0 h samples were transferred to the plate after 10 min incubation and 15 μL of starter solution was added; the plate was placed on ice before centrifugation.
The diluted starter solution was added in sufficient quantity to the dispensing plate to facilitate the multichannel pipette aspiration operation.
The reaction was carried out on a warm incubation shaker and 15 μL of starter solution/sample is added to the plate using a multichannel pipette. The reaction was mixed with a slight shake to initiate the reaction, which was accurately timed and recorded using a timer;
After the reaction time had elapsed, all the solution in the plate was aspirated using the multichannel pipette and added to the precipitation plate to terminate the reaction at that point in time. After all reactions had been terminated, the plates were shaken for ten minutes on a plate shaker at 600 rpm to precipitate the protein. The plate was centrifuged at 4° C. for 15 minutes at maximum rpm. 80 μL of supernatant was taken, 320 μL of pure water was added and mixed for LC-MS analysis.

[2] = Plasma protein binding (PPB), mouse; conditions: 5 h dialysis, read-out: Plasma protein binding rate (%) Mouse (converted)
Procedure: Sample preparation: The compound was dissolved in DMSO to a stock solution of 10 mM, then the compound was diluted with PBS to a secondary stock solution of 0.02 mM, and then the above 0.02 mM was diluted to 1 μM using blank plasma, which was the sample to be incubated.
Dialysis set-up preparation: 400 μL of blank PBS was first added to the white wells of the equilibrated dialysis plate and 200 μL of the configured plasma sample was added to the red wells, and the dialysis plate was sealed with a sealing film.
Recovery plate preparation: Two 96-well deep-well plates, labelled T0 and T5, were prepared and all plasma samples were added at n=2. 300 μL of acetonitrile (Verapamil-HCl, 4 ng/mL) was added directly to the TO plate, followed by 50 μL of blank PBS mix well for 5 min and left to stand in a 4° C. refrigerator until the end of the incubation.
Experimental Operation: The dialysis device and the T5 plate were incubated together for 5 h in a microplate thermostatic shaker (37° C., using 300 rpm or minimum speed). At the end of the incubation, 300 μL of acetonitrile (Verapamil-HCl, 4 ng/mL) was added and 50 μL of PBS solution was added. At the end of the dialysis incubation, a new 96-well deep well plate was taken. Add 50 μL of plasma well sample to the corresponding position of the 96-well plate, 300 μL of acetonitrile and 50 μL of blank PBS; take 50 μL of buffer well sample to the corresponding position of the 96-well plate, then add 300 μL of acetonitrile and 50 μL of blank plasma. Add 300 μL of acetonitrile (Verapamil-HCl, 4 ng/mL) to the plasma-containing wells of the T5 plate, and then 50 μL of PBS solution was added. Shake for 5 min to fully precipitate the proteins and centrifuge at 20,000 g for 10 min at 4° C. Add 200 μL of supernatant to 200 μL of pure water, mix well and perform LC-MS/MS analysis.
2. Data Processing and Parameter Calculation Plasma protein binding rate=[(Rpe−Rb)/Rpe]×100% Recovery=[(Rpe+Rb)/R5h]×100% Stability=(R5/R0)×100% where • Rpe=ratio of plasma-side testing sample peak area to internal standard • Rb=ratio of buffer side testing sample peak area to internal standard • R5=ratio of incubator stability sample peak area to internal standard • R0=ratio of refrigerator stability sample peak area to internal standard 3.

CYP1A2 = target: T1, CYP1A2 (Homo sapiens, UniProt P05177); assay: Inhibition of cytochrome P450, CYP1A2; conditions: CYP1A2 enzyme, pH 7.4, probe EOMCC, read-out: CYP inhibition/% 1A2; for inhibition at 30 min, 1 µM: compound concentration 1 μM; for inhibition at 30 min, 10 µM: compound concentration 10 μM
T1 sequence (P05177 1-516): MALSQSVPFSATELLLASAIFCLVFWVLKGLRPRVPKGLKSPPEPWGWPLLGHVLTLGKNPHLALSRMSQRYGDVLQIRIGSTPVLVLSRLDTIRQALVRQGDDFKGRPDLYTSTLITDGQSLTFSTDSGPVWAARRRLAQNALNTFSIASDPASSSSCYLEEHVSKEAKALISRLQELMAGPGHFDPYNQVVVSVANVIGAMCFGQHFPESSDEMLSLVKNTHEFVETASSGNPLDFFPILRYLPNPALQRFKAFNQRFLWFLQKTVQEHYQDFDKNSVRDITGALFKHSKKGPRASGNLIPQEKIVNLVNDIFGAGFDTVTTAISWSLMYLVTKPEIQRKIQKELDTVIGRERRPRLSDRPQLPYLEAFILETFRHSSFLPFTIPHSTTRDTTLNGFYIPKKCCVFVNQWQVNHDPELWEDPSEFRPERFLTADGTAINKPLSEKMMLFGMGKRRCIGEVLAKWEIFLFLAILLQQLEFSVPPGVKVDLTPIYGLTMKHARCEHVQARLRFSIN
Procedure: Enzymatic experiments were performed to quantify the inhibition of CYP450 enzyme activity of each isoform of CYP450 by small molecule inhibitors through fluorescence generated by the oxidation of the substrate by cytochrome P450. […] The Solution B composition used for the experiment was: 40 U/mL G6PDH (Sigma-aldrich, Cat #G6378). The substrate mix was 0.05× Solution A, 0.01× Solution B, 50 mM Potassium Phosphate, 0.01 mM BOMCC/0.01 mM EOMCC/0.001 mM DBOMF. […] The data were analyzed and processed using GraphPad Prism 6 software to obtain IC50 values.

What does the source list for `Cc1cc(Nc2ncc3cnn(-c4cccc(N=S(C)(C)=O)n4)c3n2)ccc1N1CCN(C)CC1` [Compound 16]?
half-life at 1 µM [1]: > 2 h; fraction unbound at 5 h, 1 µM [2]: 0.092

Which inhibition at 30 min, 1 µM (CYP1A2) does the source give for `CS(C)(=O)=Nc1cccc(-n2ncc3cnc(Nc4ccc(N5CCOCC5)cc4)nc32)n1` [Compound 6] here?
Its inhibition at 30 min, 1 µM is 15.5%.

What about the inhibition at 30 min, 10 µM (CYP1A2) of the same molecule?
Its inhibition at 30 min, 10 µM is 23.3%.

Which results are given for `CN1CCN(c2ccc(Nc3ncc4cnn(-c5cccc(N=S(C)(C)=O)n5)c4n3)cc2)CC1` [Compound 1]?
half-life at 1 µM [1]: > 2 h; inhibition at 30 min, 1 µM (CYP1A2): 18.4%; inhibition at 30 min, 10 µM (CYP1A2): 16.3%; fraction unbound at 5 h, 1 µM [2]: 0.226

For `C=CCn1c(=O)c2cnc(Nc3ccc(N4CCN(C)CC4)cc3)nc2n1-c1cccc(C(C)(C)O)n1` [AZD-1775, reference compound], which half-life at 1 µM [1] is on record?
Its half-life at 1 µM is > 2 h.

And the fraction unbound at 5 h, 1 µM [2]?
The fraction unbound at 5 h, 1 µM was 0.087.

What does the source list for `Cc1cc(Nc2ncc3cnn(-c4cccc(N=S(C)(C)=O)n4)c3n2)ccc1N1CCC(N(C)C)CC1` [Compound 14]?
half-life at 1 µM [1]: > 2 h; fraction unbound at 5 h, 1 µM [2]: 0.138

For `CN1CCN(c2ccc(Nc3ncc4cnn(-c5cccc(C(C)(C)O)n5)c4n3)cc2)CC1` [Compound 2], which half-life at 1 µM [1] is on record?
Its half-life at 1 µM is > 2 h.

And the inhibition at 30 min, 1 µM (CYP1A2)?
Its inhibition at 30 min, 1 µM is 13.5%.

And the inhibition at 30 min, 10 µM (CYP1A2)?
The inhibition at 30 min, 10 µM was 14.2%.
